Results: patent US20220041691A1, “METHODS FOR DIAGNOSING OR TREATING POST-TRAUMATIC STRESS DISORDER, AND COMPOSITIONS THEREFOR” (Centre for Addiction and Mental Health, priority 2018, published 2022)
Numbering of substitutions follows the chain as printed.

T1: GR-FKBP51 complex (Mus musculus, UniProt Q64378)
T1 construct: from tissue; host or cells: C57Bl/6 mouse brain (acute slices; whole-brain lysate) and blood lymphocytes
T1 sequence (Q64378 1-456): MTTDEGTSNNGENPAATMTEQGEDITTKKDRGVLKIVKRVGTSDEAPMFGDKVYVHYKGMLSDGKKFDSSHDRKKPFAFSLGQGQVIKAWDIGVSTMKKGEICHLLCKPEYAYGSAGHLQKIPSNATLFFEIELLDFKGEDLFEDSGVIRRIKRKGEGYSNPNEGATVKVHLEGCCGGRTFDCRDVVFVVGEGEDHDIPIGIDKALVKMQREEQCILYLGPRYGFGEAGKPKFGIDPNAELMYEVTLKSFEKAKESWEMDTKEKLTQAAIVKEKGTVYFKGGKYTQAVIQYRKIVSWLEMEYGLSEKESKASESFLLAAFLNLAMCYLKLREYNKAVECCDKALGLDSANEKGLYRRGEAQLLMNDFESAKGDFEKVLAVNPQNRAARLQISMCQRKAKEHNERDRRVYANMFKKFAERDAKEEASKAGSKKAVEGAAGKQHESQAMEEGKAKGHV

T2: Flag-tagged GR, wild-type (human, UniProt P04150 1-777)
T2 construct: Expressed in HEK293(T) cells; also called Flag-GR; WT-GR; not shown: Flag tag
T2 sequence: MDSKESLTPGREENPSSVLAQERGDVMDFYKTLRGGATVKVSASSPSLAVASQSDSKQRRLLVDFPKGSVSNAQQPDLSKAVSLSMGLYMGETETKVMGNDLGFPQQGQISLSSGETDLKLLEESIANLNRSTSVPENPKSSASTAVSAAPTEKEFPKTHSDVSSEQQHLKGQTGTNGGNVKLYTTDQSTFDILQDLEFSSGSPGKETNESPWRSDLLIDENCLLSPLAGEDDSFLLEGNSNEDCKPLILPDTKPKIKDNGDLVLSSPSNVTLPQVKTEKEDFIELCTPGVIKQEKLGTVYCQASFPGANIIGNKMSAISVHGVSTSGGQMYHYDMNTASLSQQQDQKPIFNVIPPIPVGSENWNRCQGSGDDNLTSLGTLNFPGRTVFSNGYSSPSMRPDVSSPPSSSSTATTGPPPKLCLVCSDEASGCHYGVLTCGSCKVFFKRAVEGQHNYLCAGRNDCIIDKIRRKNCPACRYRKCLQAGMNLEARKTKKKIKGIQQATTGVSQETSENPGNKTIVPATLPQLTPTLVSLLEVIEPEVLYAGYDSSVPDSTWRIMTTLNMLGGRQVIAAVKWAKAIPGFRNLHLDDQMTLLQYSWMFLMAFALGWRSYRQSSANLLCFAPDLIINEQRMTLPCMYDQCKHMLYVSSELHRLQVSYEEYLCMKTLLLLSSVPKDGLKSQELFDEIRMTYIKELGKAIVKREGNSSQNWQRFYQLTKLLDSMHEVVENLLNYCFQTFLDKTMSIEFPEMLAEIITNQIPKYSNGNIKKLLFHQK

T3: Flag-tagged GR S211A mutant (non-phosphorylated GR mutant) (human, UniProt P04150 1-777)
T3 construct: also called S211A-GR; S211A GR; not shown: Flag tag
T3 sequence: T2 sequence with S211A

T4: Flag-tagged GR S211E mutant (phosphomimetic GR mutant) (human, UniProt P04150 1-777)
T4 construct: also called S211E-GR; S211E GR; not shown: Flag tag
T4 sequence: T2 sequence with S211E

B1: GST-FKBP51_TPR (GST fusion of the tetratricopeptide repeat domain of FKBP51) (other)
chain: EMDTKEKLEQAAIVKEKGTVYFKGGKYMQAVIQYGKIVSWLEMEYGLSEKESKASESFLLAAFLNLAMCYLKLREYTKAVECCDKALGLDSANEKGLYRRGEAQLLMNEFESAKGDFEKVLEVNPQNKAARLQISMCQKKAKEHNERDRRIYANMFKKFAEQDAKEEANKAMGKKTSEGVTNEKGTDSQAMEEEKPEGHV
notes: also called GST-TPR; FKBP51 TPR domain; not shown: glutathione S-transferase (GST) tag; vector stated only for the GR fragments (pGEX-4T3)

Columns and labels:
fear-conditioned mice = assay: Cued fear conditioning, systemic (i.p.) peptide delivery; format: in vivo, mouse; conditions: p<0.05
Method: Next, testing was performed to determine whether TAT-GRpep can block the emergence of PTSD-like fear-related behaviours when administrated systemically. Animals underwent five rounds of CS-US pairings followed by 5 days of extinction training before the expression of fear in response to the learned cue was assessed (FIG. 4A). Mice were injected with either TAT-GRpep or TAT intraperitoneally (3 nmol/g, i.p.) one hour before the test.
Furthermore, testing was performed to determine whether disrupting the GR-FKBP51 complex reduced consolidation of cued fear memory. Thus, TAT or TAT-GRpep was administered two hours after the end of fear conditioning training (FIG. 4C), before five consecutive daily extinction sessions of cue exposure without shock. […] This may therefore indicate a potential approach to both preventing and treating PTSD-like behaviour in the aftermath of trauma, for example.
Animals were first given a five-minute habituation to the apparatus (Habitest, Colbourne Instruments). Then, animals were exposed to 30 seconds of cue exposure (an in-house white light), which co-terminated with one second of foot-shock (0.5 mA). The cue exposure and foot-shock were repeated five times, intermitted by 5-minute inter-trial intervals. Following the conditioning, animals were subjected to 2-5 days of extinction before the assessment of their cued fear memory, which consisted of 15 rounds of 30-second cue exposure, with 30-second inter-trial intervals (adapted from Andero et al.).^48
The expression of fear (in a different context from training) was assessed 24 hours after the last extinction training. The assessment consisted of a three-minute period of habituation (absence of CS) and a sequent three-minute trial of conditioned cues. The duration of freezing behaviors was recorded by a blinded experimenter. Peptide treatment was either administered 2 hours after the conditioning or 30 minutes before the behavioral assessment.

GR-FKBP51 complex = target: T1, GR-FKBP51 complex; assay: Co-immunoprecipitation of GR-FKBP51 complex in brain and lymphocyte lysate of fear-conditioned mice injected with peptide; format: in vivo; conditions: brain lysate of fear-conditioned mice injected with TAT or TAT-GRpep; p<0.05, n=3
Method: Furthermore, testing was performed to determine whether disrupting the GR-FKBP51 complex reduced consolidation of cued fear memory. Thus, TAT or TAT-GRpep was administered two hours after the end of fear conditioning training (FIG. 4C), before five consecutive daily extinction sessions of cue exposure without shock.
(§1) Co-immunoprecipitation and Western blot analyses were performed as previously described.^24, 25, 26 For co-immunoprecipitation, 500˜1000 μg solubilized protein was extracted from whole mouse brain and incubated with primary antibody or control IgG (2˜4 μg) for 4 hrs at 4° C., followed by the addition of 25 μl protein A/G plus agarose (Santa Cruz Biotechnology) for 12 hrs. Pellets were washed, boiled for 5 min in SDS sample buffer and subjected to SDS-PAGE. 50˜100 μg of total protein extract was used as control in each experiment. After transfer of proteins into nitrocellulose, membranes were Western blotted with the primary antibodies. The intensity of protein level was quantified by densitometry (software: ImageLab, Bio-Rad).

[1] = tested on: GR phosphorylation at S211; assay: Western blot of GR phosphorylation at S211 in brain lysate of fear-conditioned mice; format: in vivo, mouse; conditions: brain lysate of fear-conditioned mice injected with TAT or TAT-GRpep; p<0.05, n=3
Description: To further investigate these findings, surface plasmon resonance (SPR) was used to estimate association and dissociation rates between GR and FKBP51. […] Thus, GR S211 phosphorylation seems to reduce GR affinity for FKBP51. Conversely, disruption of the GR-FKBP51 complex with TAT-GRpep could increase GR S211 phosphorylation, which is what was observed when comparing fear-conditioned mice treated with TAT-GRpep vs. TAT control or no treatment (FIG. 5 I-J).
as §1, with “Bio-Rad). […]” for “Bio-Rad).”

[2] = tested on: GR and FKBP52 colocalization in primary neurons; assay: Immunocytochemistry of GR and FKBP52 in primary mouse neurons; format: cell-based; conditions: primary neurons 8 DIV, 10 μM, 45 min
Method: Cortical tissues from embryonic day (E14) mouse brains were dissected out, incubated with 0.25% trypsin for 15 min at 37° C., and dissociated by mechanical trituration. Neurons were then plated at a desired density onto glass coverslips previously coated with 0.1 mg/ml poly-d-lysine, and grown in Neurobasal medium with 1× Glutamax, 1×B27, 100 U/ml penicillin and 100 μg/ml streptomycin in an incubator (37° C., 5% CO2). Either 10 μM of TAT-GRpep, 10 μM TAT-control peptide or saline were added in culture plates for 45 min in advance at 8 days in vitro (8 DIV).
Cultured neurons were fixed in 4% PFA/4% sucrose, permeabilized with 0.1M PBS containing 0.1% Triton X-100 for 10 min, and blocked for 1 hour with 1% bovine serum albumin in PBS at room temperature. They were incubated with primary antibodies overnight at 4° C. and secondary antibodies for 1 hour at room temperature. The following primary antibodies were used: anti-GR (1:200; Thermo), anti-FKBP51 (1:200; Abcam) and anti-FKBP52 (1:200; Abcam). […] DAPI was used to stain cell nuclei.

[3] = target: T2, Flag-tagged GR, wild-type; assay: SPR (Reichert SR7500DC, 25 C), FLAG-tagged GR captured on FLAG antibody-coated chip, GST-FKBP51_TPR injected
[4] = target: T3, Flag-tagged GR S211A mutant …; assay: as above
[5] = target: T4, Flag-tagged GR S211E mutant …; assay: as above

Row | Molecule | duration of freezing with the CS (fear-conditioned mice; 3 nmol/g i.p. one hour before the test, after 5 days of extinction training, three-minute cue trial) [s] | duration of freezing with the CS (consolidation of cued fear memory) (fear-conditioned mice; peptide administered two hours after end of fear conditioning, tested 24 hours after last of five daily extinction sessions) [s] | GR-FKBP51 complex level in brain (co-immunoprecipitation) (GR-FKBP51 complex) | GR phosphorylation at S211 [1] | nuclear GR-FKBP52 colocalization [2] | Kd [3] [µM] | Kd [4] [µM] | Kd [5] [µM]
1 | TAT: control peptide: cell-membrane transduction domain of the human immunodeficiency virus-type 1 TAT protein (GRKKRRQRRRPQ; Amino Acid Sequence of the Cell-Membrane Transduction Domain of HIV-Type 1 Transactivator of Transcription (TAT) Protein) [reference compound] | 64.2 ± 10.7 | 71.0 ± 3.6 | not | not | almost negligible amount of GR-FKBP52 complex |  |  | 
2 | B1 |  |  |  |  |  | 3.31 | 0.412 | 3.9
